Laboratory results as given in patent US6821983B2, “5-(9-acridinylamino)-toluidine compounds” (Academia Sinica, priority 2003, dated 2004).
Counter-ions that a name gives are not always drawn. Values belong to the compound of their own block, whether it stands above or below them.

Tests used:
human tumor cell lines = assay: Inhibition of human tumor cell growth in culture (XTT-tetrazolium cytotoxicity assay, 72 h); format: cell-based; conditions: five human tumor cell lines, 72 h incubation; for IC50 values compared with tested known 9-anilinoacridine antitumor compounds: for at least one cell line
Protocol: (§1) Cytotoxicity Assays. The effects of the compounds on cell growth were determined in all human tumor cells (i.e. colon HT-29, nasopharyngeal carcinoma HONE-1 and BM-1, hepatoma Hepa-G2, breast carcinoma MX-1, gastric carcinoma TSGH, brain tumor DBTRG, oral carcinoma KB, breast carcinoma MCF-7 and MX-1, and T-cell acute lymphocytic leukemia CCRF-CEM), in a 72 h incubation, by XTT-tetrazolium assay, as described by Scudiero et al. (Cancer Res. 1988, 48, 4827-4833). After the addition of phenazine methosulfate-XTT solution at 37° C. for 6 h, absorbance at 450 and 630 nm was detected on a microplate reader (EL 340; Bio-Tek Instruments Inc., Winooski, Vt.). Six to seven concentrations of each compound were used. The IC50 and dose-effect relationships of the compounds for antitumor activity were calculated by a median-effect plot (Chou et al. Adv. Enzyme Regul. 1984, 22, 27-55) using a computer program on an IBM-PC workstation (Chou et al. Dose-Effect Analysis with Microcomputers: Quantitation of ED50, LD50, Synergism, Antagonism, Low-Dose Risk, Receptor-Ligands Binding and Enzyme Kinetics; Biosoft: Cambridge, U.K., 1987).

[1] = system: CCRF-CEM human lymphoblastic leukemic cells and its drug-resistant sublines; assay: Growth inhibition of CCRF-CEM cells and drug-resistant sublines (XTT-tetrazolium assay, 72 h); format: cell-based; conditions: for IC50 values compared with tested known 9-anilinoacridine compounds: CCRF-CEM and drug-resistant sublines, 72 h, as the trihydrochloride salt or free amine compounds; for cross-resistance with vinblastine or taxol: CCRF-CEM drug-resistant sublines
Protocol: as §1, with “in CCRF-CEM” for “in all”, “human lymphoblastic leukemic” for “human tumor”, “cells” for “cells (i.e. colon HT-29, nasopharyngeal carcinoma HONE-1”, “and its drug-resistant sublines” for “and BM-1, hepatoma Hepa-G2, breast carcinoma MX-1, gastric carcinoma TSGH, brain tumor DBTRG, oral carcinoma KB, breast carcinoma MCF-7 and MX-1, and T-cell acute lymphocytic leukemia CCRF-CEM),”

[2] = system: human breast tumor MX-1 xenograft; assay: Chemotherapeutic efficacy in nude mice bearing human breast tumor MX-1 xenograft; format: in vivo; conditions: i.v., dosages of 10 mg/Kg or higher
Protocol: In vivo assay. Athymic nude mice bearing the nu/nu gene were used for human breast tumor MX-1 xenograft. Outbred Swiss-background mice were obtained from Charies River Breeding Laboratories. Male mice 8 weeks old or older weighing 22 g or more were used for most experiments. Drug was administrated via the tail vein by i.v. injection. Tumor volumes were assessed by measuring length x width x height (or width) by using caliper. Vehicle used was 20 μl DMSO in 180 μl saline. All animal studies were conducted in accordance with the guidelines of the National Institutes of Health Guide for the Care and Use of Animals and the protocol approved by the Memorial Sloan-Kettering Cancer Center's Institutional Animal Care and Use Committee.

melting point: 131 to 132 °C
Compound: CCOC(=O)Nc1cc(Nc2c3cccc(C)c3nc3c(C(=O)NCCN(C)C)cccc23)ccc1C [Compound 6]
IC50 values compared with tested known 9-anilinoacridine antitumor compounds (human tumor cell lines): lower than those of tested known 9-anilinoacridine antitumor compounds

melting point: 245 to 246 °C
Compound: Cc1ccc(Nc2c3cccc(C)c3nc3c(C(=O)NCCN(C)C)cccc23)cc1N (as salt: HCl) [Compound 3, 5-[9-(4-dimethylaminoethylcarboxamido-5-methyl)acridinylamino)-p-toluidine hydrochloride]

Compound: Cc1cc(N)cc(Nc2c3cccc(C)c3nc3c(C(=O)NCCN(C)C)cccc23)c1 [Compound 1, 5-[9-(4-dimethylaminoethylcarboxamido-5-methyl)acridinylamino]-m-toluidine hydrochloride]
IC50 values compared with tested known 9-anilinoacridine antitumor compounds (human tumor cell lines): lower than those of tested known 9-anilinoacridine antitumor compounds
IC50 values compared with tested known 9-anilinoacridine compounds [1]: lower than tested known 9-anilinoacridine compounds
cross-resistance with vinblastine or taxol [1]: not cross-resistant
reducing tumor volume [2]: about 80%
toxicity to the host [2]: very low toxicity

Compound: Cc1ccc(Nc2c3cccc(C)c3nc3c(C(=O)NCCN(C)C)cccc23)cc1N [Compound 3, 5-[9-(4-dimethylaminoethylcarboxamido-5-methyl)acridinylamino)-p-toluidine hydrochloride]
IC50 values compared with tested known 9-anilinoacridine antitumor compounds (human tumor cell lines): lower than those of tested known 9-anilinoacridine antitumor compounds

Compound: Cc1ccc(N)cc1Nc1c2cccc(C)c2nc2c(C(=O)NCCN(C)C)cccc12 [Compound 2, 3-[9-(4-dimethylaminoethylcarboxamido-5-methyl)acridinylamino)-p-toluidine hydrochloride]
largest difference in IC50 versus one of the tested known compounds (human tumor cell lines): 18 fold
IC50 values compared with tested known 9-anilinoacridine antitumor compounds (human tumor cell lines): lower than those of tested known 9-anilinoacridine antitumor compounds
IC50 values compared with tested known 9-anilinoacridine compounds [1]: lower than tested known 9-anilinoacridine compounds
cross-resistance with vinblastine or taxol [1]: not cross-resistant
reducing tumor volume [2]: about 80%
toxicity to the host [2]: very low toxicity

melting point: > 280 °C (dec.)
Compound: Cc1cc(N)cc(Nc2c3ccccc3nc3ccccc23)c1 (as salt: HCl) [Compound 10, 5-(9-acridinylamino)-m-toluidine]

Compound: {3-[4-(2-dimethylamino ethylcarbamoyl)-5-methyl-acridin-9-ylamino]-2-methyl-phenyl}-carbamic acid ethyl ester [Compound 5]
IC50 values compared with tested known 9-anilinoacridine antitumor compounds (human tumor cell lines): lower than those of tested known 9-anilinoacridine antitumor compounds
